Test results reported in US20210317134A1, “UBIQUITIN-SPECIFIC-PROCESSING PROTEASE 7 (USP7) MODULATORS AND USES THEREOF” (RAPT THERAPEUTICS, INC., priority 2019, published 2021).
pIC50: −log10 of the molar value.

Biological target: USP7 (Homo sapiens, UniProt Q93009)
Assay: USP7 inhibitory potency (Table 1)
Type: biochemical

USP7, sequence (Q93009 whole entry): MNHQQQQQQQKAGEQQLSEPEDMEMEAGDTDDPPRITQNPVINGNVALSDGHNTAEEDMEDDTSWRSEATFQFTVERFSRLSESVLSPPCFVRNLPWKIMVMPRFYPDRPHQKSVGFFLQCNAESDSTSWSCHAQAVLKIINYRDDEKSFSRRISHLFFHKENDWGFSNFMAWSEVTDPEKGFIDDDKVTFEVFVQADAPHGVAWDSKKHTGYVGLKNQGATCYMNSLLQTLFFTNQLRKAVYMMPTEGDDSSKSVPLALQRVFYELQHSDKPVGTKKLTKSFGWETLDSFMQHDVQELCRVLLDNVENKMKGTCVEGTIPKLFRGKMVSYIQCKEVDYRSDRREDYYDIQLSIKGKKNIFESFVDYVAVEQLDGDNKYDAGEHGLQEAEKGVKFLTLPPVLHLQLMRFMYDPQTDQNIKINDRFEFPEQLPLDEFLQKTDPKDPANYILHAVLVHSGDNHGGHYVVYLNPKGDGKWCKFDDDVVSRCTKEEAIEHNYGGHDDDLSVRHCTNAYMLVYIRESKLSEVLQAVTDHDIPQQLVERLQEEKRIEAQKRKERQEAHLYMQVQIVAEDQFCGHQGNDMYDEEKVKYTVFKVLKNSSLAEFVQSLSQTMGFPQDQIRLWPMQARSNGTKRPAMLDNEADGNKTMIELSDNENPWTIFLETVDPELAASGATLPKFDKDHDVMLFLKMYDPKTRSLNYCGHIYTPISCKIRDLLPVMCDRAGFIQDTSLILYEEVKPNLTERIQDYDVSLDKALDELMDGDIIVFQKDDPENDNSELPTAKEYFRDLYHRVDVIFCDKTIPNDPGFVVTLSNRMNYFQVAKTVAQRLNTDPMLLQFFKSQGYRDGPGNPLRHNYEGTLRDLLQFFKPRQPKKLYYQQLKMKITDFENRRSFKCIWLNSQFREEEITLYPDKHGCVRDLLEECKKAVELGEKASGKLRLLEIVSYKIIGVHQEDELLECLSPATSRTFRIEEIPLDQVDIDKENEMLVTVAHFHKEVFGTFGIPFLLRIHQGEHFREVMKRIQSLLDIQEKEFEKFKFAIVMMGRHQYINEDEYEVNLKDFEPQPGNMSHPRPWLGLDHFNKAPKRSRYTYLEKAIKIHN

O=C(C1Cc2cc(Cl)cc(-c3ccnc4[nH]ccc34)c2O1)N1CCC(O)(c2ccc(F)cc2Cl)CC1 (centres unmarked) [(4-(2-chloro-4-fluorophenyl)-4-hydroxypiperidin-1-yl)(5-chloro-7-(1H-pyrrolo[2,3-b]pyridin-4-yl)-2,3-dihydrobenzofuran-2-yl)methanone] and O=C(C1Cc2cc(Cl)cc(-c3ccnc4[nH]ccc34)c2O1)N1CCC(O)(c2ccccc2F)CC1 (centres unmarked) [(5-chloro-7-(1H-pyrrolo[2,3-b]pyridin-4-yl)-2,3-dihydrobenzofuran-2-yl)(4-(2-fluorophenyl)-4-hydroxypiperidin-1-yl)methanone] fall in the same range of pIC50: 5.00 to 6.00 for the first, 5.00 to 6.00 for the second.

First: O=C(C1Cc2cc(Cl)cc(-c3ccnc4[nH]ccc34)c2O1)N1CCC(O)(Cc2ccccc2)CC1 (centres unmarked) [(4-benzyl-4-hydroxypiperidin-1-yl)(5-chloro-7-(1H-pyrrolo[2,3-b]pyridin-4-yl)-2,3-dihydrobenzofuran-2-yl)methanone]
Second: O=C(C1Cc2cc(Cl)cc(-c3ccnc4[nH]ccc34)c2O1)N1CCC(O)(Cc2cccnc2)CC1 (centres unmarked) [(5-chloro-7-(1H-pyrrolo[2,3-b]pyridin-4-yl)-2,3-dihydrobenzofuran-2-yl)(4-hydroxy-4-(pyridin-3-ylmethyl)piperidin-1-yl)methanone]
The pIC50 of the first is higher: 5.00 to 6.00 for the first, 4.52 to 5.00 for the second.

O=C(C1Cc2cc(Cl)c(Cl)c(-c3ccnc4[nH]ccc34)c2O1)N1CCNCC1 (centres unmarked) [(5,6-dichloro-7-(1H-pyrrolo[2,3-b]pyridin-4-yl)-2,3-dihydrobenzofuran-2-yl)(piperazin-1-yl)methanone] and C[C@@H]1CN(C(=O)C2Cc3cc(Cl)cc(-c4ccnc5[nH]ccc45)c3O2)CCN1 (stereo partly drawn) [(5-chloro-7-(1H-pyrrolo[2,3-b]pyridin-4-yl)-2,3-dihydrobenzofuran-2-yl)((R)-3-methylpiperazin-1-yl)methanone] fall in the same range of pIC50: 5.00 to 6.00 for the first, 5.00 to 6.00 for the second.

First: O=C(C1Cc2cc(Cl)cc(-c3ccnc4[nH]ccc34)c2O1)N1CCN(c2ccccn2)CC1 (centres unmarked) [(5-Chloro-7-(1H-pyrrolo[2,3-b]pyridin-4-yl)-2,3-dihydrobenzofuran-2-yl)(4-(pyridin-2-yl)piperazin-1-yl)methanone]
Second: O=C(C1Cc2cc(Cl)cc(-c3ccnc4[nH]ccc34)c2O1)N1CCN(c2ccncn2)CC1 (centres unmarked) [(5-chloro-7-(1H-pyrrolo[2,3-b]pyridin-4-yl)-2,3-dihydrobenzofuran-2-yl)(4-(pyrimidin-4-yl)piperazin-1-yl)methanone]
The pIC50 of the first is lower: 4.52 to 5.00 for the first, 5.00 to 6.00 for the second.

Cc1cc(-c2cc(Cl)cc3c2OC(C(=O)N2CCNCC2)C3)ccn1 (centres unmarked) [(5-Chloro-7-(2-methylpyridin-4-yl)-2,3-dihydrobenzofuran-2-yl)(piperazin-1-yl)methanone] and O=C(C1Cc2cc(Cl)cc(-c3ccnc4cccnc34)c2O1)N1CCNCC1 (centres unmarked) [(5-chloro-7-(1,5-naphthyridin-4-yl)-2,3-dihydrobenzofuran-2-yl)(piperazin-1-yl)methanone] fall in the same range of pIC50: 4.52 to 5.00 for the first, 4.52 to 5.00 for the second.

First: CC1(C(=O)N2CCNCC2)Cc2cc(Cl)cc(-c3ccnc4[nH]ccc34)c2O1 (centres unmarked) [(5-chloro-2-methyl-7-(1H-pyrrolo[2,3-b]pyridin-4-yl)-2,3-dihydrobenzofuran-2-yl)(piperazin-1-yl)methanone]
Second: C[C@@H]1CNCCN1C(=O)C1Cc2cc(Cl)cc(-c3ccnc4[nH]ccc34)c2O1 (stereo partly drawn) [(5-chloro-7-(1H-pyrrolo[2,3-b]pyridin-4-yl)-2,3-dihydrobenzofuran-2-yl)((R)-2-methylpiperazin-1-yl)methanone]
The pIC50 of the first is higher: 5.00 to 6.00 for the first, 4.52 to 5.00 for the second.

First: O=C(C1Cc2cc(Cl)cc(-c3ccnc4ccncc34)c2O1)N1CCNCC1 (centres unmarked) [(5-chloro-7-(1,6-naphthyridin-4-yl)-2,3-dihydrobenzofuran-2-yl)(piperazin-1-yl)methanone]
Second: O=C(C1Cc2cc(Cl)cc(-c3ccnc4[nH]ccc34)c2O1)N1CCN[C@@H](CO)C1 (stereo partly drawn) [(5-chloro-7-(1H-pyrrolo[2,3-b]pyridin-4-yl)-2,3-dihydrobenzofuran-2-yl)((R)-3-(hydroxymethyl)piperazin-1-yl)methanone]
The pIC50 of the first is lower: 4.52 to 5.00 for the first, 5.00 to 6.00 for the second. The second is the more potent here.

O=C(C1Cc2cc(Cl)cc(-c3ccnc4[nH]ccc34)c2O1)N1CCC2(CC1)CNC2 (centres unmarked) [(5-chloro-7-(1H-pyrrolo[2,3-b]pyridin-4-yl)-2,3-dihydrobenzofuran-2-yl)(2,7-diazaspiro[3.5]nonan-7-yl)methanone] and O=C(C1Cc2cc(Cl)cc(-c3ccnc4[nH]ccc34)c2O1)N1CCC(O)(c2ccccn2)CC1 (centres unmarked) [(5-chloro-7-(1H-pyrrolo[2,3-b]pyridin-4-yl)-2,3-dihydrobenzofuran-2-yl)(4-hydroxy-4-(pyridin-2-yl)piperidin-1-yl)methanone] fall in the same range of pIC50: 5.00 to 6.00 for the first, 5.00 to 6.00 for the second.

First: CN1CCC(N2CCN(C(=O)C3Cc4cc(Cl)cc(-c5ccnc6[nH]ccc56)c4O3)CC2)CC1 (centres unmarked) [(5-chloro-7-(1H-pyrrolo[2,3-b]pyridin-4-yl)-2,3-dihydrobenzofuran-2-yl)(4-(1-methylpiperidin-4-yl)piperazin-1-yl)methanone]
Second: CN1CCC(CN2CCN(C(=O)C3Cc4cc(Cl)cc(-c5ccnc6[nH]ccc56)c4O3)CC2)CC1 (centres unmarked) [(5-chloro-7-(1H-pyrrolo[2,3-b]pyridin-4-yl)-2,3-dihydrobenzofuran-2-yl)(4-((1-methylpiperidin-4-yl)methyl)piperazin-1-yl)methanone]
The pIC50 of the first is lower: 4.52 to 5.00 for the first, 5.00 to 6.00 for the second.

First: O=C(C1Cc2cc(Cl)cc(-c3ccnc4[nH]ccc34)c2O1)N1CCC(c2ccccc2O)CC1 (centres unmarked) [(5-chloro-7-(1H-pyrrolo[2,3-b]pyridin-4-yl)-2,3-dihydrobenzofuran-2-yl)(4-(2-hydroxyphenyl)piperidin-1-yl)methanone]
Second: O=C(C1Cc2cc(Cl)cc(-c3ccnc4[nH]ccc34)c2O1)N1CCC(c2ccc(O)cc2)CC1 (centres unmarked) [(5-chloro-7-(1H-pyrrolo[2,3-b]pyridin-4-yl)-2,3-dihydrobenzofuran-2-yl)(4-(4-hydroxyphenyl)piperidin-1-yl)methanone]
The pIC50 of the first is higher: 5.00 to 6.00 for the first, 4.52 to 5.00 for the second. The first is the more potent here.

First: O=C(C1Cc2cc(Cl)cc(-c3ccnc4[nH]ccc34)c2O1)N1CCC(O)(c2ccc(Cl)cc2)CC1 (centres unmarked) [(5-chloro-7-(1H-pyrrolo[2,3-b]pyridin-4-yl)-2,3-dihydrobenzofuran-2-yl)(4-(4-chlorophenyl)-4-hydroxypiperidin-1-yl)methanone]
Second: O=C(C1Cc2cc(Cl)cc(-c3ccnc4[nH]ccc34)c2O1)N1CCC(O)(c2ccncc2)CC1 (centres unmarked) [(5-chloro-7-(1H-pyrrolo[2,3-b]pyridin-4-yl)-2,3-dihydrobenzofuran-2-yl)(4-hydroxy-4-(pyridin-4-yl)piperidin-1-yl)methanone]
The pIC50 of the first is lower: 5.00 to 6.00 for the first, over 6.00 for the second. The second is the more potent here.

O=C(C1Cc2cc(Cl)cc(-c3ccnc4[nH]ccc34)c2O1)N1CCN([C@H]2CC[C@H](c3ccccc3)CC2)CC1 (some centres unmarked) [(5-chloro-7-(1H-pyrrolo[2,3-b]pyridin-4-yl)-2,3-dihydrobenzofuran-2-yl)(4-((1s,4r)-4-phenylcyclohexyl)piperazin-1-yl)methanone] and O=C(C1Cc2cc(Cl)cc(-c3ccnc4[nH]ccc34)c2O1)N1CCN([C@H]2CC[C@@H](c3ccccc3)CC2)CC1 (some centres unmarked) [(5-chloro-7-(1H-pyrrolo[2,3-b]pyridin-4-yl)-2,3-dihydrobenzofuran-2-yl)(4-((1s,4s)-4-phenylcyclohexyl)piperazin-1-yl)methanone] fall in the same range of pIC50: 5.00 to 6.00 for the first, 5.00 to 6.00 for the second.

CN(C)C1CCN(C(=O)C2Cc3cc(Cl)cc(-c4ccnc5[nH]ccc45)c3O2)CC1 (centres unmarked) [(5-chloro-7-(1H-pyrrolo[2,3-b]pyridin-4-yl)-2,3-dihydrobenzofuran-2-yl)(4-(dimethylamino)piperidin-1-yl)methanone] and O=C(C1Cc2cc(Cl)cc(-c3ccnc4[nH]ccc34)c2O1)N1CCC(c2ccncc2)CC1 (centres unmarked) [(5-chloro-7-(1H-pyrrolo[2,3-b]pyridin-4-yl)-2,3-dihydrobenzofuran-2-yl)(4-(pyridin-4-yl)piperidin-1-yl)methanone] fall in the same range of pIC50: 5.00 to 6.00 for the first, 5.00 to 6.00 for the second.

First: O=C(C1Cc2cc(Cl)cc(-c3ccnc4[nH]ccc34)c2O1)N1CCN(C2CCNCC2)CC1 (centres unmarked) [(5-chloro-7-(1H-pyrrolo[2,3-b]pyridin-4-yl)-2,3-dihydrobenzofuran-2-yl)(4-(piperidin-4-yl)piperazin-1-yl)methanone]
Second: O=C(C1Cc2cc(Cl)cc(-c3ccnc4[nH]ccc34)c2O1)N1CCC(N2CCOCC2)CC1 (centres unmarked) [(5-chloro-7-(1H-pyrrolo[2,3-b]pyridin-4-yl)-2,3-dihydrobenzofuran-2-yl)(4-morpholinopiperidin-1-yl)methanone]
The pIC50 of the first is lower: 4.52 to 5.00 for the first, 5.00 to 6.00 for the second.

O=C(C1Cc2cc(Cl)cc(-c3ccnc4[nH]ccc34)c2O1)N1CCN(c2cccnc2)CC1 (centres unmarked) [(5-chloro-7-(1H-pyrrolo[2,3-b]pyridin-4-yl)-2,3-dihydrobenzofuran-2-yl)(4-(pyridin-3-yl)piperazin-1-yl)methanone] and O=C(C1Cc2cc(Cl)cc(-c3ccnc4[nH]ccc34)c2O1)N1CCN(c2ccncc2)CC1 (centres unmarked) [(5-chloro-7-(1H-pyrrolo[2,3-b]pyridin-4-yl)-2,3-dihydrobenzofuran-2-yl)(4-(pyridin-4-yl)piperazin-1-yl)methanone] fall in the same range of pIC50: 5.00 to 6.00 for the first, 5.00 to 6.00 for the second.

First: O=C(C1Cc2cc(Cl)cc(-c3ccnc4[nH]ccc34)c2O1)N1CCC(O)(c2cccnc2)CC1 (centres unmarked) [(5-chloro-7-(1H-pyrrolo[2,3-b]pyridin-4-yl)-2,3-dihydrobenzofuran-2-yl)(4-hydroxy-4-(pyridin-3-yl)piperidin-1-yl)methanone]
Second: O=C(C1Cc2cc(Cl)cc(-c3ccnc4[nH]ccc34)c2O1)N1CCC(O)(c2ccccc2)CC1 (centres unmarked) [(5-chloro-7-(1H-pyrrolo[2,3-b]pyridin-4-yl)-2,3-dihydrobenzofuran-2-yl)(4-hydroxy-4-phenylpiperidin-1-yl)methanone]
The pIC50 of the first is higher: over 6.00 for the first, 5.00 to 6.00 for the second. The first is the more potent here.

O=C(C1Cc2cc(Cl)cc(-c3ccnc4[nH]ccc34)c2O1)N1CCC(O)(c2cccc3ncccc23)CC1 (centres unmarked) [(5-chloro-7-(1H-pyrrolo[2,3-b]pyridin-4-yl)-2,3-dihydrobenzofuran-2-yl)(4-hydroxy-4-(quinolin-5-yl)piperidin-1-yl)methanone] and O=C(C1Cc2cc(Cl)cc(-c3ccnc4[nH]ccc34)c2O1)N1CCN[C@H](CO)C1 (stereo partly drawn) [(5-chloro-7-(1H-pyrrolo[2,3-b]pyridin-4-yl)-2,3-dihydrobenzofuran-2-yl)((S)-3-(hydroxymethyl)piperazin-1-yl)methanone] fall in the same range of pIC50: 5.00 to 6.00 for the first, 5.00 to 6.00 for the second.

C[C@H]1CNCCN1C(=O)C1Cc2cc(Cl)cc(-c3ccnc4[nH]ccc34)c2O1 (stereo partly drawn) [(5-chloro-7-(1H-pyrrolo[2,3-b]pyridin-4-yl)-2,3-dihydrobenzofuran-2-yl)((S)-2-methylpiperazin-1-yl)methanone] showed a pIC50 of 5.00 to 6.00.
